Measured values as given in PubChem BioAssay (NCI).
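These data come from cells grown in 96-well plates and exposed to compound for 48 hours at five concentrations. GI50 is the concentration that inhibits growth by half. The concentration for full growth arrest is given as TGI.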

Experiments:
Assay in all cases: growth of human tumour cells (NCI), 48 h
UO-31 renal = system: UO-31 renal
A549 NSCLC = system: A549 NSCLC
ACHN renal = system: ACHN renal
OVCAR-8 ovarian = system: OVCAR-8 ovarian
HS 578T breast = system: HS 578T breast
SN12C renal = system: SN12C renal
SK-OV-3 ovarian = system: SK-OV-3 ovarian
SK-MEL-5 melanoma = system: SK-MEL-5 melanoma
SNB-75 CNS = system: SNB-75 CNS
HL-60(TB) leukemia = system: HL-60(TB) leukemia
COLO 205 colon = system: COLO 205 colon
UACC-257 melanoma = system: UACC-257 melanoma
OVCAR-3 ovarian = system: OVCAR-3 ovarian
RPMI-8226 leukemia = system: RPMI-8226 leukemia
HCC-2998 colon = system: HCC-2998 colon
K-562 leukemia = system: K-562 leukemia
CAKI-1 renal = system: CAKI-1 renal
MDA-MB-231 breast = system: MDA-MB-231 breast
U251 CNS = system: U251 CNS
SNB-19 CNS = system: SNB-19 CNS
IGROV1 ovarian = system: IGROV1 ovarian
MALME-3M melanoma = system: MALME-3M melanoma
KM12 colon = system: KM12 colon
T-47D breast = system: T-47D breast
NCI-H522 lung = system: NCI-H522 lung
SF-295 CNS = system: SF-295 CNS
EKVX NSCLC = system: EKVX NSCLC
SF-268 CNS = system: SF-268 CNS
HOP-92 NSCLC = system: HOP-92 NSCLC
SK-MEL-2 melanoma = system: SK-MEL-2 melanoma
NCI/ADR-RES ovarian = system: NCI/ADR-RES ovarian
DU-145 prostate = system: DU-145 prostate
MOLT-4 leukemia = system: MOLT-4 leukemia
SR leukemia = system: SR leukemia
HOP-62 NSCLC = system: HOP-62 NSCLC
CCRF-CEM leukemia = system: CCRF-CEM leukemia
SK-MEL-28 melanoma = system: SK-MEL-28 melanoma
MDA-MB-435 = system: MDA-MB-435
PC-3 prostate = system: PC-3 prostate
OVCAR-5 ovarian = system: OVCAR-5 ovarian
SW-620 colon = system: SW-620 colon
BT-549 breast = system: BT-549 breast
HCT-15 colon = system: HCT-15 colon
M14 melanoma = system: M14 melanoma
786-0 renal = system: 786-0 renal
HT29 colon = system: HT29 colon
UACC-62 melanoma = system: UACC-62 melanoma
NCI-H23 lung = system: NCI-H23 lung
TK-10 renal = system: TK-10 renal
SF-539 CNS = system: SF-539 CNS
MCF7 breast = system: MCF7 breast
RXF 393 renal = system: RXF 393 renal
HCT-116 colon = system: HCT-116 colon
A498 renal = system: A498 renal
OVCAR-4 ovarian = system: OVCAR-4 ovarian
NCI-H226 lung = system: NCI-H226 lung
NCI-H460 lung = system: NCI-H460 lung
LOX IMVI melanoma = system: LOX IMVI melanoma

## CCN1C(=O)N(CC)C2C1NN=c1s/c(=C\c3ccc(OC)cc3)c(=O)n12 (configuration not stated)
UO-31 renal
  GI50: 653 nM
  TGI: > 100000 nM
A549 NSCLC
  GI50: 247 nM
  TGI: > 100000 nM
ACHN renal
  GI50: 165 nM
  TGI: > 100000 nM
OVCAR-8 ovarian
  GI50: 369 nM
HS 578T breast
  GI50: 219 nM
  TGI: > 100000 nM
SN12C renal
  GI50: 454 nM
  TGI: > 100000 nM
SK-OV-3 ovarian
  GI50: 267 nM
  TGI: 17100 nM
SK-MEL-5 melanoma
  GI50: 192 nM
  TGI: 1640 nM
SNB-75 CNS
  GI50: 44.2 nM
  TGI: 2840 nM
HL-60(TB) leukemia
  GI50: 174 nM
  TGI: 477 nM
COLO 205 colon
  GI50: 192 nM
  TGI: 616 nM
UACC-257 melanoma
  GI50: > 100000 nM
  TGI: > 100000 nM
OVCAR-3 ovarian
  GI50: 114 nM
  TGI: 526 nM
RPMI-8226 leukemia
  GI50: 353 nM
  TGI: > 100000 nM
HCC-2998 colon
  GI50: 357 nM
  TGI: > 100000 nM
K-562 leukemia
  GI50: 53 nM
  TGI: > 100000 nM
CAKI-1 renal
  GI50: 57.7 nM
  TGI: > 80200 nM
MDA-MB-231 breast
  GI50: 353 nM
  TGI: > 39000 nM
U251 CNS
  GI50: 244 nM
  TGI: > 100000 nM
SNB-19 CNS
  GI50: 471 nM
  TGI: > 100000 nM
IGROV1 ovarian
  GI50: 295 nM
  TGI: > 100000 nM
MALME-3M melanoma
  GI50: 304 nM
  TGI: > 100000 nM
KM12 colon
  GI50: 71.6 nM
  TGI: > 100000 nM
T-47D breast
  GI50: 163 nM
  TGI: > 100000 nM
NCI-H522 lung
  GI50: 105 nM
SF-295 CNS
  GI50: 68.4 nM
  TGI: > 45900 nM
EKVX NSCLC
  GI50: 440 nM
  TGI: > 100000 nM
SF-268 CNS
  GI50: 577 nM
  TGI: > 80100 nM
HOP-92 NSCLC
  GI50: 3250 nM
  TGI: > 100000 nM
SK-MEL-2 melanoma
  GI50: 1660 nM
  TGI: > 100000 nM
NCI/ADR-RES ovarian
  GI50: 74.4 nM
  TGI: > 100000 nM
DU-145 prostate
  GI50: 323 nM
  TGI: > 29800 nM
MOLT-4 leukemia
  GI50: 378 nM
  TGI: > 100000 nM
SR leukemia
  GI50: 44.4 nM
HOP-62 NSCLC
  GI50: 381 nM
  TGI: > 59400 nM
CCRF-CEM leukemia
  GI50: 304 nM
  TGI: > 100000 nM
SK-MEL-28 melanoma
  GI50: 953 nM
  TGI: > 100000 nM
MDA-MB-435
  GI50: 31 nM
  TGI: 105 nM
PC-3 prostate
  GI50: 140 nM
  TGI: > 100000 nM
OVCAR-5 ovarian
  GI50: 474 nM
  TGI: > 100000 nM
SW-620 colon
  GI50: 136 nM
  TGI: > 100000 nM
BT-549 breast
  GI50: 288 nM
  TGI: > 25100 nM
HCT-15 colon
  GI50: 104 nM
  TGI: > 100000 nM
M14 melanoma
  GI50: 172 nM
  TGI: > 100000 nM
786-0 renal
  GI50: 647 nM
  TGI: > 100000 nM
HT29 colon
  GI50: 238 nM
  TGI: > 82400 nM
UACC-62 melanoma
  GI50: 70.4 nM
  TGI: > 100000 nM
NCI-H23 lung
  GI50: 494 nM
  TGI: > 100000 nM
TK-10 renal
  GI50: > 33500 nM
  TGI: > 100000 nM
SF-539 CNS
  GI50: 103 nM
  TGI: 545 nM
MCF7 breast
  GI50: 46.5 nM
  TGI: > 100000 nM
RXF 393 renal
  GI50: 78.9 nM
  TGI: 47000 nM
HCT-116 colon
  GI50: 188 nM
  TGI: > 100000 nM
A498 renal
  GI50: 22.2 nM
  TGI: 92.4 nM
OVCAR-4 ovarian
  GI50: 614 nM
  TGI: > 100000 nM
NCI-H226 lung
  GI50: 1720 nM
NCI-H460 lung
  GI50: 242 nM
  TGI: > 100000 nM
LOX IMVI melanoma
  GI50: 233 nM
  TGI: > 100000 nM
